Data taken from ChEMBL document CHEMBL5143585, “Discovery and characterization of benzyloxy piperidine based dopamine 4 receptor antagonists” (Bioorg Med Chem Lett, 2022).

What was measured:
[1] = molecular target: D(3) dopamine receptor (Homo sapiens, UniProt P35462); test: Displacement of [3H]N-methylspiperone from human D3 receptor expressed in HEK293 cell membrane at 10 uM by competitive inhibition based analysis; type: cell membranes
[2] = molecular target: T1, D(4) dopamine receptor (Homo sapiens) (UniProt P21917); test: Displacement of [3H]N-methylspiperone from human D4 receptor expressed in HEK293 cell membrane at 10 uM by competitive inhibition based analysis; type: cell membranes
T1 sequence (whole entry): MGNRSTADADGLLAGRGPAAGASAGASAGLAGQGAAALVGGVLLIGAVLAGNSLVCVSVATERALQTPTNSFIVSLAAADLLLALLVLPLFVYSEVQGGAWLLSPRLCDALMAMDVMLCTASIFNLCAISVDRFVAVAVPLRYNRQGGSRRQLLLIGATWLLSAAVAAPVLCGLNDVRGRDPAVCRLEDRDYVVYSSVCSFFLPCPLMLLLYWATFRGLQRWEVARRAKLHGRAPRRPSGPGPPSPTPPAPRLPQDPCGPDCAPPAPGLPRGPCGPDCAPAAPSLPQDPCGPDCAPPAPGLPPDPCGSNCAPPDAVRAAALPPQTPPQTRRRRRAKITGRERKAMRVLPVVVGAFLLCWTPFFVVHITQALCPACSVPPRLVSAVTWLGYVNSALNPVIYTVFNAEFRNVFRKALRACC

[3] = molecular target: D(1A) dopamine receptor (Homo sapiens, UniProt P21728); test: Displacement of [3H]-SCH23390 from human D1 receptor expressed in HEK293 cell membrane at 10 uM by competitive inhibition based analysis; type: cell membranes
Sequence of D(1A) dopamine receptor (P21728 whole entry): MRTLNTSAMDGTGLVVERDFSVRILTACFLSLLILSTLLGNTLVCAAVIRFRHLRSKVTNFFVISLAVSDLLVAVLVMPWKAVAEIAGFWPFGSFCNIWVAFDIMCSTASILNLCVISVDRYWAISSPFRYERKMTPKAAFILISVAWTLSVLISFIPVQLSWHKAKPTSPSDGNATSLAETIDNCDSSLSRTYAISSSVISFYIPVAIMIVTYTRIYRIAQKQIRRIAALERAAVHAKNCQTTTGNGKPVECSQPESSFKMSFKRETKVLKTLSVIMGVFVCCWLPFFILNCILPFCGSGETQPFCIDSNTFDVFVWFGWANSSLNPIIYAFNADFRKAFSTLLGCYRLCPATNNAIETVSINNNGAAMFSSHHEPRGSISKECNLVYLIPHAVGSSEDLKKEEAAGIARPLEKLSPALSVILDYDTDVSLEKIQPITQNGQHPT

[4] = molecular target: D(1B) dopamine receptor (Homo sapiens, UniProt P21918); test: Displacement of [3H]-SCH23390 from human D5 receptor expressed in HEK293 cell membrane at 10 uM by competitive inhibition based analysis; type: cell membranes
Sequence of D(1B) dopamine receptor (P21918 whole entry): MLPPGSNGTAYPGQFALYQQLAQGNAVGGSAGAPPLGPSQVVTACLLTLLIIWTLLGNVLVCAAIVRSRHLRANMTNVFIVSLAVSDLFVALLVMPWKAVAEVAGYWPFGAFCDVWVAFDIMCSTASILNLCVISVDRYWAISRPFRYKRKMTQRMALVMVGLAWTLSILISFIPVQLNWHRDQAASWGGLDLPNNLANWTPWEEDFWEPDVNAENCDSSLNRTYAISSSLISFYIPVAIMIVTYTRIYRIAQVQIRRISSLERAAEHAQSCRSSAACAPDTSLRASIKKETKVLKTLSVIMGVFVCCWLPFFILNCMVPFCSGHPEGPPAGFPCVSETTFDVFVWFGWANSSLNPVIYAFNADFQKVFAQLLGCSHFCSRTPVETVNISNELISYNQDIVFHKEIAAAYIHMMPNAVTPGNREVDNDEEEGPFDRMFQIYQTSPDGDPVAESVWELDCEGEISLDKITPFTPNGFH

[5] = molecular target: D(2) dopamine receptor (Homo sapiens) (UniProt P14416); test: Displacement of [3H]N-methylspiperone from human D2 receptor expressed in HEK293 cell membrane at 10 uM by competitive inhibition based analysis; type: cell membranes
Sequence of D(2) dopamine receptor (Homo sapiens) (P14416 whole entry): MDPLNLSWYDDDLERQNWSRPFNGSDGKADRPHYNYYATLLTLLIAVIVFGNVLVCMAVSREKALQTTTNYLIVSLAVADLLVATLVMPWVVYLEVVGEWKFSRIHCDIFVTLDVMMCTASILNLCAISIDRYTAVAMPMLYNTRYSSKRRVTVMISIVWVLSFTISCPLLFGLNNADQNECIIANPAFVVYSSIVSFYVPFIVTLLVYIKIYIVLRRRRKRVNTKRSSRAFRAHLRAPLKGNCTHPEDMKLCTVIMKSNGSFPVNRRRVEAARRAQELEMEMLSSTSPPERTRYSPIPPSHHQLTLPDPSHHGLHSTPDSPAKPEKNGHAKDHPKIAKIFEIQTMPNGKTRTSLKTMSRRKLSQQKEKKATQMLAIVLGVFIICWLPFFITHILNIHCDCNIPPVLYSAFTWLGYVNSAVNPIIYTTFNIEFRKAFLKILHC

[6] = molecular target: T2, D(4) dopamine receptor (Homo sapiens, UniProt P21917); test: Displacement of [3H]N-methylspiperone from human D4 receptor expressed in HEK293 cell membrane by competitive inhibition based analysis; type: cell membranes
T2 sequence (P21917 whole entry): T1 sequence (whole entry)

[7] = Protein binding in mouse plasma assessed as unbound fraction; type: ADME, cell-free
[8] = Protein binding in human plasma assessed as unbound fraction; type: ADME, cell-free

Sequence of D(3) dopamine receptor (P35462 whole entry): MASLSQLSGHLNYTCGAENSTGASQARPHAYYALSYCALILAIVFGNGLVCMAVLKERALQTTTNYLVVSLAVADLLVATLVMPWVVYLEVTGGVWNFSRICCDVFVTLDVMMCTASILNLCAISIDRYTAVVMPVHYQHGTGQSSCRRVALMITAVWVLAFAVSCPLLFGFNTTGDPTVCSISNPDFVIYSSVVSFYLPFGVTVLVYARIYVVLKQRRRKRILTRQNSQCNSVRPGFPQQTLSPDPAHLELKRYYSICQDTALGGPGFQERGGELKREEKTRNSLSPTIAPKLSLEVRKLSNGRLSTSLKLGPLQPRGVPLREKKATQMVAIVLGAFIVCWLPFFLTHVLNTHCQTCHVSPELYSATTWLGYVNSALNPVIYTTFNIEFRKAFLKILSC

| Compound | inhibition [1] | inhibition [2] | inhibition [3] | inhibition [4] | inhibition [5] | IC50 [6] | Ki [6] | Fu [7] | Fu [8] | inhibition ([2]; filed as antagonist) |
| --- | --- | --- | --- | --- | --- | --- | --- | --- | --- | --- |
| Cc1ccc(CO[C@H]2CCCN(Cc3cccc(F)c3)C2)cc1 | < 50% | 33.1% | < 50% | < 50% | < 50% |  |  |  |  |  |
| COc1ccc(CN2CCC[C@H](OCc3ccccc3C)C2)cc1F | < 50% |  | < 50% | < 50% | < 50% | 0.347 µM | 0.343 µM |  |  |  |
| Fc1cccc(COC2CCN(Cc3cn4ccccc4n3)CC2)c1 | < 50% |  | < 50% | < 50% | < 50% | 0.166 µM | 0.167 µM | 35.5% | 7% |  |
| Cn1ncc2cc(CN3CCC(OCc4ccc(Cl)c(F)c4)CC3)ccc21 | < 50% |  | < 50% | < 50% | < 50% | 0.17 µM | 0.17 µM | 5.2% | 0.9% |  |
| Fc1ccc(CO[C@H]2CCCN(Cc3ncn4ccccc34)C2)cc1F | < 50% |  | < 50% | < 50% | < 50% | 0.447 µM | 0.447 µM | 18.1% | 3.9% |  |
| Cc1cc(CO[C@H]2CCCN(Cc3cn4ccccc4n3)C2)ccc1F | < 50% |  | < 50% | < 50% | < 50% | 0.186 µM | 0.187 µM |  |  |  |
| Fc1ccc(COC2CCN(Cc3ncc4ccccn34)CC2)cc1F | < 50% |  | < 50% | < 50% | < 50% | 0.214 µM | 0.215 µM |  |  |  |
| Cc1ccc(CO[C@H]2CCCN(Cc3ccc(Cl)c(Cl)c3)C2)cc1 | < 50% |  | < 50% | < 50% | < 50% | 1.38 µM | 1.39 µM |  |  |  |
| Fc1ccc(COC2CCN(Cc3ccc4[nH]ncc4c3)CC2)cc1F |  |  |  |  |  | 1.74 µM | 1.73 µM |  |  |  |
| COc1ccc(CN2CCC[C@H](OCc3cccc(F)c3)C2)cc1F | < 50% |  | < 50% | < 50% | < 50% | 0.204 µM | 0.206 µM |  |  |  |
| FC(F)(F)c1cccc(COC2CCN(Cc3ccc4[nH]ncc4c3)CC2)c1 |  |  |  |  |  | 0.851 µM | 0.86 µM |  |  |  |
| Cc1cccc(CO[C@H]2CCCN(Cc3cc4ccc(Cl)cc4[nH]3)C2)n1 | < 50% |  | < 50% | < 50% | < 50% | 0.316 µM | 0.319 µM |  |  |  |
| Fc1cccc(CO[C@H]2CCCN(Cc3ncn4ccccc34)C2)c1 | < 50% |  | < 50% | < 50% | < 50% | 1.35 µM | 1.34 µM |  |  |  |
| Cc1cccc(CO[C@H]2CCCN(Cc3cn4ccccc4n3)C2)n1 | < 50% | 22.5% | < 50% | < 50% | < 50% |  |  |  |  |  |
| FC(F)(F)c1cccc(COC2CCN(Cc3cn4ccccc4n3)CC2)c1 | < 50% |  | < 50% | < 50% | < 50% | 0.166 µM | 0.166 µM | 17.1% | 1.8% |  |
| COc1ccc(CN2CCC[C@@H](OCc3ccc(F)c(C)c3)C2)cc1F |  |  |  |  |  | 2 µM | 1.98 µM |  |  |  |
| FC(F)(F)Oc1cccc(CO[C@H]2CCCN(Cc3ncc4ccccn34)C2)c1 | < 50% |  | < 50% | < 50% | < 50% |  |  |  |  | 40.4% |
| Cc1ccc(CN2CCC[C@H](OCc3ccc(F)c(C)c3)C2)cc1 | < 50% |  | < 50% | < 50% | < 50% | 0.166 µM | 0.165 µM |  |  |  |
| Fc1ccc(CO[C@H]2CCCN(Cc3cn4ccccc4n3)C2)cc1F | < 50% |  | < 50% | < 50% | < 50% | 0.372 µM | 0.375 µM | 8.7% | 0.2% |  |
| COc1ccc(CN2CCC[C@H](OCc3ccc(F)c(F)c3)C2)cc1F | < 50% |  | < 50% | < 50% | < 50% | 0.17 µM | 0.169 µM | 2.6% | 1.1% |  |
| FC(F)(F)c1cccc(COC2CCN(Cc3ncc4ccccn34)CC2)c1 | < 50% |  | < 50% | < 50% | < 50% | 0.209 µM | 0.208 µM |  |  |  |

| Compound | inhibition [1] | inhibition [2] | inhibition [3] | inhibition [4] | inhibition [5] | IC50 [6] | Ki [6] | Fu [7] | Fu [8] | inhibition ([2]; filed as antagonist) |
| --- | --- | --- | --- | --- | --- | --- | --- | --- | --- | --- |
| Cn1cnc2cc(CN3CCC(OCc4ccc(Cl)c(F)c4)CC3)ccc21 |  |  |  |  |  |  |  |  |  | 48% |
| Fc1cccc(CO[C@H]2CCCN(Cc3ccc(Cl)cc3F)C2)c1 | < 50% |  | < 50% | < 50% | < 50% |  |  |  |  | 44.9% |
| COc1ccc(CN2CCC[C@H](OCc3ccc(F)c(C)c3)C2)cc1F | < 50% |  | < 50% | < 50% | < 50% | 0.135 µM | 0.135 µM |  |  |  |
| Cn1cnc2cc(CN3CCC(OCc4ccc(F)c(F)c4)CC3)ccc21 |  |  |  |  |  | 1.41 µM | 1.4 µM |  |  |  |
| Cc1nc(CN2CCC(OCc3ccc(F)c(F)c3)CC2)c2ccccn12 | < 50% |  | < 50% | < 50% | < 50% | 0.479 µM | 0.478 µM |  |  |  |
| COc1ccc(CN2CCC[C@H](OCc3cccc(C)n3)C2)cc1F | < 50% |  | < 50% | < 50% | < 50% | 1.05 µM | 1.04 µM |  |  |  |
| Cc1ccccc1CO[C@H]1CCCN(Cc2ccc(Cl)c(Cl)c2)C1 | < 50% |  | < 50% | < 50% | < 50% |  |  |  |  | 43.9% |
| Cc1ccccc1CO[C@H]1CCCN(Cc2ccc(Cl)cc2F)C1 | < 50% | -1.6% | < 50% | < 50% | < 50% |  |  |  |  |  |
| Cc1ccc(CO[C@H]2CCCN(Cc3ccc(C#N)cc3)C2)cc1 | < 50% |  | < 50% | < 50% | < 50% | 1.02 µM | 1.01 µM |  |  |  |
| Cc1ccccc1CO[C@H]1CCCN(Cc2cn3ccccc3n2)C1 | < 50% |  | < 50% | < 50% | < 50% | 1.82 µM | 1.83 µM |  |  |  |
| Cc1cccc(CO[C@H]2CCCN(Cc3ncc4ccccn34)C2)n1 | < 50% | 18.9% | < 50% | < 50% | < 50% |  |  |  |  |  |
| Fc1cc(COC2CCN(Cc3ncc4ccccn34)CC2)ccc1Cl | < 50% |  | < 50% | < 50% | < 50% | 0.158 µM | 0.158 µM | 1.7% | 1% |  |
| Cc1ccccc1CN1CCC[C@H](OCc2cccc(F)c2)C1 | < 50% | 29.2% | < 50% | < 50% | < 50% |  |  |  |  |  |
| COc1ccc(CN2CCC[C@H](OCc3ccc(C)cc3)C2)cc1F | < 50% |  | < 50% | < 50% | < 50% | 0.24 µM | 0.241 µM |  |  |  |
| Fc1cccc(CO[C@H]2CCCN(Cc3cn4ccccc4n3)C2)c1 | < 50% |  | < 50% | < 50% | < 50% | 1.95 µM | 1.94 µM |  |  |  |
| Cc1cc(CO[C@H]2CCCN(Cc3ncn4ccccc34)C2)ccc1F | < 50% |  | < 50% | < 50% | < 50% | 0.162 µM | 0.166 µM |  |  |  |
| FC(F)(F)Oc1cccc(CO[C@H]2CCCN(Cc3cn4ccccc4n3)C2)c1 | < 50% |  | < 50% | < 50% | < 50% | 0.646 µM | 0.646 µM |  |  |  |
| Cc1nc(CN2CCC(OCc3ccc(Cl)c(F)c3)CC2)c2ccccn12 | < 50% |  | < 50% | < 50% | < 50% | 0.0955 µM | 0.0955 µM | 13.2% | 7.1% |  |
| Fc1cc(COC2CCN(Cc3ccc4[nH]ncc4c3)CC2)ccc1Cl |  |  |  |  |  | 0.575 µM | 0.58 µM |  |  |  |
| Fc1cccc(COC2CCN(Cc3ncn4ccccc34)CC2)c1 | < 50% |  | < 50% | < 50% | < 50% | 0.166 µM | 0.166 µM | 40.5% | 2.3% |  |
| COc1ccc(CO[C@H]2CCCN(Cc3cccc(C)c3)C2)cc1F | < 50% |  | < 50% | < 50% | < 50% |  |  |  |  | 45.8% |
